# Assay results reported in patent publication US7928139B2 (Amgen Inc., priority 2006, dated 2011).
# Molecular target: HIF PHD2 (Homo sapiens, UniProt Q9GZT9)
# Experiment: PHD2 inhibition assay (TR-FRET, VCB-Eu detection of hydroxylated P564-HIF1α peptide)
# Type: biochemical
# Settings: 2 nM PHD2, 100 nM P564-HIF1α peptide, 0.25 μM 2-oxoglutarate, 100 μM FeCl2, 2 mM ascorbic acid
# In short: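 Human PHD2 (2 nM final) preincubated 1 h at room temperature with compound and 100 μM FeCl2 in pH 6 MES buffer, 5% DMSO final. Reaction with 100 nM biotinylated P564-HIF1α peptide, 2 mM ascorbate and 0.25 μM 2-oxoglutarate for 1 h, stopped with succinate. Hydroxylation read by TR-FRET (VCB-Eu/streptavidin-APC, 655/615 nm); IC50 from 4-parameter fit of percent of control.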
# Chain of HIF PHD2 (Q9GZT9 whole entry): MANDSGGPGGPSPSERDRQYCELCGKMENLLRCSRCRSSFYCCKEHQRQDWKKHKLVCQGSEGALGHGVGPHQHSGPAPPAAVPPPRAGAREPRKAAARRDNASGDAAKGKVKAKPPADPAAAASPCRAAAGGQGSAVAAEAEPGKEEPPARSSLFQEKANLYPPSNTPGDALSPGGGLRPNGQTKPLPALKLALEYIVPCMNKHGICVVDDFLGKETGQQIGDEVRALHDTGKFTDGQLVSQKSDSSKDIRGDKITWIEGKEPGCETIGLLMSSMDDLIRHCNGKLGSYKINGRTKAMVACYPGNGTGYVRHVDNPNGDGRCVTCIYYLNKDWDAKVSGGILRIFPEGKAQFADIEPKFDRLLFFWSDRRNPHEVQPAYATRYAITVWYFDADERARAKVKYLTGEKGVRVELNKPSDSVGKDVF
row,SMILES,IC50 [nM]
1,"CC1(C)C(=O)C(C(=O)NCC(=O)O)=C(O)c2cc(-c3ccccc3)ccc21 [Example 68, N-((6-Phenyl-4-hydroxy-1,1-dimethyl-2-oxo-naphthalen-3-yl)carbonyl)glycine]",500 to 1000
2,"O=C(O)CNC(=O)C1=C(O)c2ccccc2C2(CCN(Cc3ccccc3)CC2)C1=O [Example 69, N-((4-Hydroxy-2-oxo-2′,3′,5′,6′-tetrahydro-N-benzyl-spiro[naphthalene-1,4′-piperidine]-3-yl)carbonyl)glycine]",< 100
3,"O=C(O)CNC(=O)C1=C(O)c2ccccc2C2(CCNCC2)C1=O [Example 70, N-((4-Hydroxy-2-oxo-2′,3′,5′,6′-tetrahydro-spiro[naphthalene-1,4′-piperidine]-3-yl)carbonyl)glycine]",100 to 500
4,"O=C(O)CNC(=O)C1=C(O)c2cc(Cl)ccc2C2(CCN(Cc3ccccc3)CC2)C1=O [Example 71, N-((6-Chloro-4-hydroxy-2-oxo-2′,3′,5′,6′-tetrahydro-N-benzyl-spiro[naphthalene-1,4′-piperidine]-3-yl)carbonyl)glycine]",< 100
5,"O=C(O)CNC(=O)C1=C(O)c2cc(Cl)ccc2C2(CCCO2)C1=O (stereo not drawn) [Example 72, N-((6′-Chloro-4′-hydroxy-2′-oxo-4,5-dihydro-spiro[furan-2,1′-naphthalen]-3′-yl)carbonyl)glycine]",< 100
6,"O=C(O)CNC(=O)C1=C(O)c2cc(Cl)ccc2[C@@]2(CCCO2)C1=O [Example 73, N-(((2S)-6′-Chloro-4′-hydroxy-2′-oxo-4,5-dihydro-spiro[furan-2,1′-naphthalen]-3′-yl)carbonyl)glycine]",< 100
7,"O=C(O)CNC(=O)C1=C(O)c2cc(Cl)ccc2[C@]2(CCCO2)C1=O [Example 74, N-(((2R)-6′-Chloro-4′-hydroxy-2′-oxo-4,5-dihydro-spiro[furan-2,1′-naphthalen]-3′-yl)carbonyl)glycine]",100 to 500
8,"O=C(O)CNC(=O)C1=C(O)c2cc(Cl)ccc2C2(CCCOC2)C1=O (stereo not drawn) [Example 75, N-((6-Chloro-4-hydroxy-2-oxo-5′,6′-dihydro-spiro[naphthalene-1,3′-pyran]-3-yl)carbonyl)glycine]",< 100
9,"O=C(O)CNC(=O)C1=C(O)c2cc(Cl)ccc2[C@]2(CCCOC2)C1=O [Example 76, N-(((1S)-6-Chloro-4-hydroxy-2-oxo-5′,6′-dihydro-spiro[naphthalene-1,3′-pyran]-3-yl)carbonyl)glycine]",100 to 500
10,"O=C(O)CNC(=O)C1=C(O)c2cc(Cl)ccc2[C@@]2(CCCOC2)C1=O [Example 77, N-(((1R)-6-Chloro-4-hydroxy-2-oxo-5′,6′-dihydro-spiro[naphthalene-1,3′-pyran]-3-yl)carbonyl)glycine]",< 100
11,"CC[C@]1(C)C(=O)C(C(=O)NCC(=O)O)=C(O)c2cc(Cl)ccc21 [Example 79, N-(((1S)-6-Chloro-4-hydroxy-1-ethyl-1-methyl-2-oxo-naphthalen-3-yl)carbonyl)glycine]",100 to 500
12,"O=C(O)CNC(=O)C1=C(O)c2cc(Cl)ccc2C2(CCC(=O)CC2)C1=O [Example 80, N-((6′-Chloro-4′-hydroxy-2′,4-dioxo-spiro[cyclohexane-1,1′-naphthalen]-3′-yl)carbonyl)glycine]",< 100
13,"CC1(C)C(=O)C(C(=O)NCC(=O)O)=C(O)c2c(F)cccc21 [Example 81, N-((5-Fluoro-4-hydroxy-1,1-dimethyl-2-oxo-naphthalen-3-yl)carbonyl)glycine]",< 100
14,"CC1(C)C(=O)C(C(=O)NCC(=O)O)=C(O)c2c(Cl)cccc21 [Example 82, N-((5-Chloro-4-hydroxy-1,1-dimethyl-2-oxo-naphthalen-3-yl)carbonyl)glycine]",< 100
15,"O=C(O)CNC(=O)C1=C(O)c2cccc(F)c2C2(CCOCC2)C1=O [Example 83, N-((8-Fluoro-4-hydroxy-2-oxo-2′,3′,5′,6′-tetrahydro-spiro[naphthalene-1,4′-pyran]-3-yl)carbonyl)glycine]",< 100
16,"CC1(C#N)C(=O)C(C(=O)NCC(=O)O)=C(O)c2cc(Cl)ccc21 (stereo not drawn) [Example 84, N-((6-Chloro-1-cyano-4-hydroxy-1-methyl-2-oxo-naphthalen-3-yl)carbonyl)glycine]",< 100
17,"C[C@@]1(C#N)C(=O)C(C(=O)NCC(=O)O)=C(O)c2cc(Cl)ccc21 [Example 85, N-(((1R)-6-Chloro-1-cyano-4-hydroxy-1-methyl-2-oxo-naphthalen-3-yl)carbonyl)glycine]",< 100
18,"C[C@]1(C#N)C(=O)C(C(=O)NCC(=O)O)=C(O)c2cc(Cl)ccc21 [Example 86, N-(((1S)-6-Chloro-1-cyano-4-hydroxy-1-methyl-2-oxo-naphthalen-3-yl)carbonyl)glycine]",< 100
19,"C[C@@]1(C#N)C(=O)C(C(=O)NCC(=O)O)=C(O)c2ccccc21 [Example 87, N-(((1R)-1-Cyano-4-hydroxy-1-methyl-2-oxo-naphthalen-3-yl)carbonyl)glycine]",< 100
20,"C[C@]1(C#N)C(=O)C(C(=O)NCC(=O)O)=C(O)c2ccccc21 [Example 88, N-(((1S)-1-Cyano-4-hydroxy-1-methyl-2-oxo-naphthalen-3-yl)carbonyl)glycine]",< 100

row,SMILES,IC50 [nM]
1,"CC1(C)C(=O)C(C(=O)NCC(=O)O)=C(O)c2cccc(Cl)c21 [Example 89, N-((8-Chloro-4-hydroxy-1,1-dimethyl-2-oxo-naphthalen-3-yl)carbonyl)glycine]",< 100
2,"CC1(C)C(=O)C(C(=O)NCC(=O)O)=C(O)c2ccc(Cl)c(F)c21 [Example 90, N-((7-Chloro-8-fluoro-4-hydroxy-1,1-dimethyl-2-oxo-naphthalen-3-yl)carbonyl)glycine]",< 100
3,"O=C(O)CNC(=O)C1=C(O)c2cc(Cl)ccc2C2(CCN(C(=O)c3ccccc3)CC2)C1=O [Example 91, N-((6-Chloro-4-hydroxy-2-oxo-1′-(phenylcarbonyl)-spiro[naphthalene-1,4′-piperidin]-3-yl)carbonyl)glycine]",< 100
4,"CC1(C)C(=O)C(C(=O)NCC(=O)O)=C(O)c2cc(Cl)c(F)cc21 [Example 92, N-((6-Chloro-7-fluoro-4-hydroxy-1,1-dimethyl-2-oxo-naphthalen-3-yl)carbonyl)glycine]",< 100
5,"O=C(O)CNC(=O)C1=C(O)c2cc(Cl)ccc2C2(CCC2)C1=O [Example 93, N-((6′-Chloro-4′-hydroxy-2′-oxo-spiro[cyclobutane-1,1′-naphthalen]-3′-yl)carbonyl)glycine]",< 100
6,"O=C(O)CNC(=O)C1=C(O)c2ccccc2C2(CCOCC2)C1=O [Example 94, N-((4-hydroxy-2-oxo-2′,3′,5′,6′-tetrahydro-spiro[naphthalene-1,4′-pyran]-3-yl)carbonyl)glycine]",< 100
7,"O=C(N[C@@H](CO)C(=O)O)C1=C(O)c2cc(Cl)ccc2C2(CCOCC2)C1=O [Example 95, N-((6-Chloro-4-hydroxy-2-oxo-2′,3′,5′,6′-tetrahydro-spiro[naphthalene-1,4′-pyran]-3-yl)carbonyl)-L-serine]",100 to 500
8,"CC1(C)C(=O)C(C(=O)NCC(=O)O)=C(O)c2cc(F)c(Cl)cc21 [Example 96, N-((7-Chloro-6-fluoro-4-hydroxy-1,1-dimethyl-2-oxo-naphthalen-3-yl)carbonyl)glycine]",< 100
9,"O=C(O)CNC(=O)C1=C(O)c2cc(F)c(Cl)cc2C2(CCOCC2)C1=O [Example 97, N-((7-Chloro-6-fluoro-4-hydroxy-2-oxo-2′,3′,5′,6′-tetrahydro-spiro[naphthalene-1,4′-pyran]-3-yl)carbonyl)glycine]",< 100
10,"COC/C=C/c1ccc2c(c1)C(C)(C)C(=O)C(C(=O)NCC(=O)O)=C2O [Example 98, N-((4-Hydroxy-1,1-dimethyl-7-((1E)-3-(methyloxy)-1-propen-1-yl)-2-oxo-naphthalen-3-yl)carbonyl)glycine]",< 100
11,"COCCCc1ccc2c(c1)C(C)(C)C(=O)C(C(=O)NCC(=O)O)=C2O [Example 99, N-((4-Hydroxy-1,1-dimethyl-7-(3-(methyloxy)propyl)-2-oxo-naphthalen-3-yl)carbonyl)glycine]",< 100
12,"CNC(=O)C1=C(O)c2cc(Cl)ccc2C(C)(C)C1=O [Example 100, 6-Chloro-4-hydroxy-N,1,1-trimethyl-2-oxo-naphthalene-3-carboxamide]",> 10000
13,"CC1(C)C(=O)C(C(N)=O)=C(O)c2cc(Cl)ccc21 [Example 101, 6-Chloro-4-hydroxy-1,1-dimethyl-2-oxo-naphthalene-3-carboxamide]",> 10000
14,"C[C@@H](NC(=O)C1=C(O)c2cc(Cl)ccc2C(C)(C)C1=O)C(=O)O [Example 102, N-((6-chloro-4-hydroxy-1,1-dimethyl-2-oxo-naphthalen-3-yl)carbonyl)-D-alanine]",> 10000
15,"CC1(C)C(=O)C(C(=O)NCC(=O)O)=C(O)c2cccnc21 [Example 103, 2-(5-Hydroxy-8,8-dimethyl-7-oxo-7,8-dihydroquinoline-6-carboxamido)acetic acid]",< 100
16,"CC1(C)C(=O)C(C(=O)CCC(=O)O)=C(O)c2cc(Br)ccc21 [Example 104, 4-(7-Bromo-1-hydroxy-4,4-dimethyl-3-oxo-3,4-dihydronaphthalen-2-yl)-4-oxobutanoic acid]",< 100
17,"CC1(C)C(=O)C(C(=O)NCC(=O)O)=C(O)c2ccncc21 [Example 105, 2-(5-Hydroxy-8,8-dimethyl-7-oxo-7,8-dihydroisoquinoline-6-carboxamido)acetic acid]",< 100
18,"CC1(C)C(=O)C(C(=O)NCC(=O)O)=C(O)c2ccc(C(=O)O)cc21 [Example 106, 6-((Carboxymethyl)carbamoyl)-7-hydroxy-8,8-dimethyl-5-oxo-5,8-dihydronaphthalene-2-carboxylic acid]",< 100
19,"CC1(C)C(=O)C(C(=O)NCC(=O)O)=C(O)c2ccc(NCCN3CCOCC3)cc21 [Example 107, 2-(2-Hydroxy-1,1-dimethyl-7-(2-morpholinoethylamino)-4-oxo-1,4-dihydronaphthalene-3-carboxamido)acetic acid]",100 to 500
